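Where inhibition never reached the appropriate level, the endpoint shown equals the highest concentration tested. Otherwise, values were interpolated linearly from a five-concentration, 48-hour dose response in 96-well plates. At the TGI there is no net growth.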
What was measured:
Assay in all cases: NCI anticancer screen, dose series, 48 h
[1] = system: UACC-257 melanoma
[2] = system: 786-0 renal
[3] = system: SW-620 colon
[4] = system: MALME-3M melanoma
[5] = system: HOP-92 NSCLC
[6] = system: UACC-62 melanoma
[7] = system: OVCAR-3 ovarian
[8] = system: IGROV1 ovarian
[9] = system: MDA-N
[10] = system: MCF7 breast
[11] = system: HS 578T breast

Structure (SMILES)	TGI [1] [µM]	TGI [2] [µM]	TGI [3] [µM]	TGI [4] [µM]	TGI [5] [µM]	TGI [6] [µM]	TGI [7] [µM]	TGI [8] [µM]	TGI [9] [µM]	TGI [10] [µM]	TGI [11] [µM]
c1ccc(C2C3=C(Nc4ncnn42)c2ccccc2C3)cc1 (configuration not stated)	> 100	78.2	17.4	> 100	> 100	> 100	30.3	> 100			
COc1ccc(N2C(=O)C3c4[nH]c5ccc(OCc6ccccc6)cc5c4C4CCC(C(C)(C)C)CC4C3C2=O)cc1 (configuration not stated)	> 100	81.8	> 100	54.1		> 100	> 100	> 100	> 100	> 100	> 100
NC(C(F)(F)F)(C(F)(F)F)P(=O)(Cc1ccccc1)Cc1ccccc1	> 100	> 100	> 100	> 100		> 100	> 100	> 100	> 100	> 100	> 100
CCCCCCCCCCCCCCCCCCNc1ccn(C2OC(COP(=O)(O)OCC3OC(n4ccc(NC(=O)CCCCCCCCCCCCCCCCC)nc4=O)C(OC(C)=O)C3OC(C)=O)C(OC(C)=O)C2OC(C)=O)c(=O)n1 (configuration not stated)	> 100	> 100	> 100	> 100		> 100	> 100	> 100	> 100	> 100	> 100
COc1ccc(C2Oc3c(cc(O)c(OC)c3C)[C@@H]2C)cc1OC (some centres not stated)	> 100	> 100	> 100	> 100	> 100	> 100	> 100	> 100			
CC1(C)OCC(COC(=O)C=[N+]=[N-])O1 (configuration not stated)	> 100	> 100	> 100	> 100	> 100	> 100	> 100	> 100	> 100	> 100	
Nc1nc2cc3nc(N)c(N)nc3cc2nc1N	> 100	> 100	> 100	> 100		> 100	> 100	> 100	> 100	> 100	> 100
CC(O[Si](c1ccccc1)(c1ccccc1)C(C)(C)C)[C@H](NC(=O)OC(C)(C)C)C(=O)O[Si](c1ccccc1)(c1ccccc1)C(C)(C)C (some centres not stated)	28.8	25.9	32.1	34.3	23.2			31.9	34.1	48.6	44.4
CC(C)c1ccc2[nH]c(O)c(-c3[nH]c4ccccc4c3N=O)c2c1	24.5	16.8	25.2	14.4		20.6	20.7	21.2	19.2	5.71	17.7
O=C(/C=C/c1ccc(O)c([N+](=O)[O-])c1)CC(=O)/C=C/c1ccc(O)c([N+](=O)[O-])c1	> 100	> 100	> 100			> 100	> 100	76.4	> 100	> 100	> 100
CN(C)CCCOc1nc2c(c(=O)n(C)c(=O)n2C)n1C (tested in a mixture with another compound)	> 100	> 100	> 100	27.4	> 100	6.42	> 100	> 100		> 100	> 100
NC(=O)N/N=C(\Cc1nc2ccc(Cl)cc2[nH]c1=O)C(=O)Nc1ccc(Cl)cc1Cl	> 100	> 100	> 100	> 100		> 100	> 100	> 100	> 100	> 100	> 100
CC(C)(C)c1ccc2c(c1)CNCCNCc1cc(C(C)(C)C)ccc1OCC1(CO2)COc2ccc(C(C)(C)C)cc2CNCCNCc2cc(C(C)(C)C)ccc2OC1	3	0.388	3.56	2.8	2.58	2.76	3.12	2.5	2.14		
N.N.N.O=[N+]([O-])[O-].O=[N+]([O-])[O-].O=[N+]([O-])[O-].O=[N+]([O-])[O-].[Co+3]	> 100	> 100	> 100	> 100	> 100	> 100	> 100	> 100			
O=C(Nc1ccc(Br)cc1)c1c(-c2ccccc2)c2ccc(O)cc2oc1=O	> 10	> 10	> 10	> 10	> 10		> 10	> 10	> 10	> 10	> 10
Cn1cc2ccccc2c1-c1nc(N)nc(F)n1	> 100	> 100	> 100	> 100	> 100		> 100	> 100			
O=C(CCCCCCCCC(=O)NN1C(=O)/C(=C\c2ccc(O)c(O)c2)SC1c1ccc(Cl)cc1)NN1C(=O)/C(=C\c2ccc(O)c(O)c2)SC1c1ccc(Cl)cc1 (configuration not stated)	> 100	34.4	> 100	> 100	43.8	60.2	> 100	> 29.5	> 100	> 100	
COc1cc(-c2cc(=O)c3cc4c(cc3[nH]2)OCO4)cc(OC)c1O	> 10	> 10	> 10		> 10	> 10	> 10	> 10	> 10	> 10	> 10
C=C(C)C12CC(COC(=O)c3ccccc3)C34OC5(OC1C3C1OC1(CO)C(O)C1(O)C(OC(=O)c3ccccc3)C(C)C(C(C)CCCCCCC5O)C14)O2 (configuration not stated)	> 100	> 100		> 100	> 100	> 100	> 100	> 100	> 100	> 100	> 100
Brc1ccc(CCNCCN2CCCCC2)cc1	28.3	27.5	31.1	31.7	23.5		29.7	31	23.8	29.5	38.1
O=C1CCC[C@@H]2NC[C@@H](c3ccc4c(c3)OCO4)[C@H]12	> 25	> 25		> 25	> 25	> 25		> 25	> 25	> 25	> 25
